The numbers were not newly measured in US8884000B2 (priority 2010, dated 2014), which cites them from elsewhere.

For the series, the target named is saporin-L1 (Saponaria officinalis, UniProt Q2QEH4). The settings on record: pH 7.8.
Sequence of saporin-L1 (Q2QEH4 22-280 limits assumed): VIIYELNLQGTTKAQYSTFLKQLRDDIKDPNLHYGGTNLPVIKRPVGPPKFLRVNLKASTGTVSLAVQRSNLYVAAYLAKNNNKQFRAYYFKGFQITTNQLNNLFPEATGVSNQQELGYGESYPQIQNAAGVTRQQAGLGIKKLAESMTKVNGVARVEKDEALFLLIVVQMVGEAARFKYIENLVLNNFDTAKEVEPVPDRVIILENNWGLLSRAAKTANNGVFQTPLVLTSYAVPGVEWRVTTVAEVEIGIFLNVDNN

A word on the Km: it is the substrate concentration at which the rate is half of its maximum. By kcat is commonly meant the number of substrate molecules converted per active site and unit of time at saturation. Take poly(A): the Km is 639 ± 32 µM and the kcat is 1.02 ± 0.017 s⁻¹.
